No end group written: not given here.
How the values were obtained:
[1] = Release of loaded protein or peptide from coated ET tubes in PBS; type: physicochemical
Description: Release Quantification. Release of loaded protein or peptide from ET tubes was achieved from quartered tube segments in PBS at 37° C. while shaking at 100 rpm. FITC-BSA elution and PLGA degradation samples were obtained by completely removing the supernatant and adding fresh PBS to each well. […] PLGA degradation was quantified via EnzyFluo L-Lactate Assay Kit (Bioassay Systems). Peptide release was quantified via Pierce Quantitative Fluorometric Peptide Assay (Thermo Scientific).

[2] = tested on: S. epidermidis; assay: Minimum inhibitory concentration (MIC) of Lasio; type: cell-based, Staphylococcus epidermidis; parameters: unit not given here; settings: data not shown
Description: (§1) Bacteria Culture. Staphylococcus epidermidis (Winslow and Winslow) Evans (ATCC 13990) was cultured in nutrient broth aerobically at 37° C. Streptococcus pneumoniae (Klein) Chester (NCTC 7465; ATCC 33400) was cultured in Brain Heart Infusion Broth and plated on Trypticase soy agar with 5% defibrinated sheep blood (Colorado Serum Co.) aerobically (5% CO2) at 37° C.
(§2) Antibacterial Activity Assay.

[3] = tested on: Staphylococcus epidermidis; assay: Crystal violet biofilm assay on ET tubes; type: cell-based; settings: 24 hours, 1×MIC/PLGA vs uncoated, 0.5×MIC/PLGA, free peptide vs 1×MIC/PLGA p<0.0001
Description: as §1, §2

[4] = tested on: Staphylococcus epidermidis; assay: Adherent bacterial viability on ET tubes (colony counts); type: cell-based; settings: 24 hours, 1×MIC/PLGA vs uncoated, 0.5×MIC/PLGA p<0.0001, free peptide vs 1×MIC/PLGA p=0.0015
Description: as §1, §2

[5] = tested on: patient derived laryngotracheal fibroblasts
Description: Peptide/PLGA coated tubes and controls were first submerged in Fluorobrite DMEM supplemented with 10% FBS, 2% Anti-Anti, 1% MEM NEAA, and incubated for 24 hours at 37° ° C. while shaking at 100 rpm to achieve release. Simultaneously, laryngotracheal fibroblasts were seeded at 7,000 cells/well in 48 well plates and allowed to adhere overnight in a culture atmosphere at 37° C., 95% relative humidity, and 5% CO2. Cell media was replaced with appropriate tube releasate and incubated for 24 hours in the culture atmosphere. Invitrogen AlamarBlue HS Cell Viability Reagent (ThermoFisher Scientific) was used to quantify viability.

Row | Substance | linear release ([1]; from PLGA coated ET tubes, PBS at 37° C. shaking at 100 rpm, after initial burst release) [µg/day] | minimum inhibitory concentration [2] | adherent bacterial populations (crystal violet biofilm assay) [3] | viability of adherent bacteria [4] | viability [%] | cytotoxicity toward human patient-derived laryngotracheal fibroblasts [5] | linear release rate ([1]; mouse sized tube loaded with 17.04 μg peptide, over 9 days) [µg/day] | encapsulated peptide released ([1]; mouse sized tube, by day 9) [%]
1 | VNWKKILGKIIKVVK-NH2 (C-terminus assumed) [Lasio, Lasioglossin-III] | 0.28 | 1.25 | significant reduction in adherent bacteria | inhibited the viability of adherent bacteria | 62.3 | not cytotoxic | – | –
2 | A4K14-citropin 1.1 | – | – | – | – | – | – | 0.397 | ~80

— patent US20240189490A1, “ANTIMICROBIAL ELUTING AIRWAY DEVICES” (priority 2021, published 2024)
